# Results as given in patent US20250312499A1, “KISSPEPTIN RECEPTOR (KISS1R) TARGETED THERAPEUTICS AND USES THEREOF” (priority 2024, published 2025).
# Numbered stars: 1 amine (or outer) side, 2 acyl side, 3 side chain; on linkers, the order of the positions; unused ones are H or OH. Square brackets hold non-standard residues; d marks the D form. Peptide text beside a SMILES is read from it. * marks the point of attachment. DOTA = O=C(O)CN1CCN(CC(=O)O)CCN(CC(=O)*)CCN(CC(=O)O)CC1; Gly(N-(3-F-4-Me-benzyl)) = Cc1ccc(CNCC(=O)*)cc1F; Propanoyl(3-(MeO(CH2CH2O)2)) = COCCOCCOCCC(=O)*; Gly(N-3-F-4-Me-benzyl) = Cc1ccc(CNCC(=O)O)cc1F; Gly(Nα-4-MeO-benzyl) = COc1ccc(CNCC(=O)*)cc1; Api(1-amidino) = N=C(N)N1CCC(N)(C(=O)O)CC1; Gly(Nα-CH2(4-Pyr)) = O=C(O)CNCc1ccncc1; HO(CH2CH2O)2CH2CH2CO = O=C(CCOCCOCCO)*; Phe(3-F) = N[C@@H](Cc1cccc(F)c1)C(=O)O; Phe(4-I) = N[C@@H](Cc1ccc(I)cc1)C(=O)O; d2Nal = N[C@H](Cc1ccc2ccccc2c1)C(=O)O; X1 = O=C(CN1CCC(N[*:1])CC1)[*:2]; 4Pal = N[C@@H](Cc1ccncc1)C(=O)O; Cha = N[C@@H](CC1CCCCC1)C(=O)O; 4Amb = NCc1ccc(C(=O)O)cc1; 4Abz = Nc1ccc(C(=O)O)cc1; Octanoyl = CCCCCCCC(=O)*; Api = NC1(C(=O)O)CCNCC1; PEG2 = NCCOCCOCCC(=O)O; Ahx = NCCCCCC(=O)O; azaGly = NNC(=O)O; Sar = CNCC(=O)O
# Molecular target: human kisspeptin receptor (Homo sapiens (Human), UniProt Q969F8)
# Sequence (Q969F8 whole entry): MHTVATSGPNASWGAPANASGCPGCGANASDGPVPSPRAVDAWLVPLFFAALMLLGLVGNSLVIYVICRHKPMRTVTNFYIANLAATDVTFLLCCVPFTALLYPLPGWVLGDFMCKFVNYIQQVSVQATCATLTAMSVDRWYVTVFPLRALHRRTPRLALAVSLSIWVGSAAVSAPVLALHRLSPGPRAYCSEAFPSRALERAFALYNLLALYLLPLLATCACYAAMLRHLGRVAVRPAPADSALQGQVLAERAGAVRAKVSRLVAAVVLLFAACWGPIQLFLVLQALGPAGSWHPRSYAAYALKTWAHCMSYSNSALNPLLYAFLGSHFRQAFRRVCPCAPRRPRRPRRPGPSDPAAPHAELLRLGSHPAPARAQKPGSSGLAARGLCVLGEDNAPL
# Test: Human KISS1R binding assay (membrane competition binding)
# Conditions: 90 min at room temperature; competition with 0.2 nM [125I]-metastin (45-54); Flp-In T-Rex 293 kisspeptin membranes; metal complexes nonradioactive Ga, In, Lu; read-out: hKiSSR Binding Ki (90 min)
# Method in brief: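 Membranes from tetracycline-induced (48 h) Flp-In T-Rex 293 cells expressing receptor, 5–10 μg, incubated 90 min at room temperature with 0.2 nM [125I]-metastin (45-54) and competitor (typically 0–10,000 nM) in Tris/Mg/Ca/EGTA/0.1% BSA, pH 7.4. Filtration, washing, counting; Ki by non-linear regression.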
row,Structure (SMILES),Ki [µM]
1,Cc1ccc(CNCC(=O)N2CCC(NC(=O)[C@H](CC(C)C)NC(=O)NNC(=O)[C@H](Cc3cccc(F)c3)NC(=O)[C@@H](NC(=O)[C@H](CC(N)=O)NC(=O)[C@H](CCCCN)NC(=O)CN3CCC(NC(=O)CN4CCN(CC(=O)O)CCN(CC(=O)O)CCN(CC(=O)O)CC4)CC3)[C@@H](C)O)(C(=O)N[C@@H](Cc3c[nH]c4ccccc34)C(N)=O)CC2)cc1F [Compound 164] ({DOTA}-[X1]KNT[Phe(3-F)][azaGly]L[Api](Gly(N-(3-F-4-Me-benzyl)))W-NH2),< 0.01
2,Cc1ccc(CNCC(=O)N2CCC(NC(=O)[C@H](CC(C)C)n3cc([C@H](Cc4ccccc4)NC(=O)CCCCCNC(=O)CN4CCN(CC(=O)O)CCN(CC(=O)O)CCN(CC(=O)O)CC4)nn3)(C(=O)N[C@@H](Cc3c[nH]c4ccccc34)C(N)=O)CC2)cc1F [Compound 9],< 0.01
3,Cc1ccc(CNCC(=O)N2CCC(NC(=O)[C@H](CC(C)C)NC(=O)NNC(=O)[C@H](Cc3ccccc3)NC(=O)[C@@H](NC(=O)CN3CCC(NC(=O)CN4CCN(CC(=O)O)CCN(CC(=O)O)CCN(CC(=O)O)CC4)CC3)[C@@H](C)O)(C(=O)N[C@@H](Cc3ccc(O)cc3)C(N)=O)CC2)cc1F [Compound 250] ({DOTA}-[X1]TF[azaGly]L[Api](Gly(N-(3-F-4-Me-benzyl)))Y-NH2),< 0.01
4,COc1ccc(CNCC(=O)N2CCC(NC(=O)[C@H](CC(C)C)NC(=O)NNC(=O)[C@H](Cc3ccccc3)NC(=O)[C@@H](NC(=O)[C@H](CC(N)=O)NC(=O)CCCCCNC(=O)CN3CCN(CC(=O)O)CCN(CC(=O)O)CCN(CC(=O)O)CC3)[C@@H](C)O)(C(=O)N[C@@H](Cc3ccccc3)C(N)=O)CC2)cc1 [Compound 235] ({DOTA-Ahx}-NTF[azaGly]L[Api](Gly(Nα-4-MeO-benzyl))F-NH2),< 0.01
5,Cc1ccc(CNCC(=O)N2CCC(NC(=O)[C@H](CC(C)C)NC(=O)NNC(=O)[C@H](Cc3ccccc3)NC(=O)[C@@H](NC(=O)[C@H](CCC(=O)O)NC(=O)[C@H](CCCCNC(=O)CN3CCN(CC(=O)O)CCN(CC(=O)O)CCN(CC(=O)O)CC3)NC(=O)CCOCCOCCO)[C@@H](C)O)(C(=O)N[C@@H](Cc3ccncc3)C(N)=O)CC2)cc1F [Compound 252] ({HO(CH2CH2O)2CH2CH2CO}-K(DOTA)ETF[azaGly]L[Api](Gly(N-(3-F-4-Me-benzyl)))[4Pal]-NH2),> 0.1
6,Cc1ccc(CNCC(=O)N2CCC(NC(=O)[C@H](CC(C)C)NC(=O)NNC(=O)[C@H](Cc3ccccc3)NC(=O)[C@@H](NC(=O)[C@H](CC(N)=O)NC(=O)[C@@H](Cc3c[nH]c4ccccc34)NC(=O)[C@@H](Cc3ccc(O)cc3)NC(=O)CCCCCNC(=O)CN3CCN(CC(=O)O)CCN(CC(=O)O)CCN(CC(=O)O)CC3)[C@@H](C)O)(C(=O)N[C@@H](Cc3c[nH]c4ccccc34)C(N)=O)CC2)cc1F [Compound 1] ({DOTA-Ahx}-[dY][dW]NTF[azaGly]L[Api](Gly(N-(3-F-4-Me-benzyl)))W-NH2),< 0.01
7,CC(C)C[C@H](NC(=O)NNC(=O)[C@H](Cc1ccc(I)cc1)NC(=O)[C@@H](NC(=O)[C@H](CC(N)=O)NC(=O)[C@H](Cc1ccc(I)cc1)NC(=O)[C@@H](Cc1ccc(O)cc1)NC(=O)CN1CCN(CC(=O)O)CCN(CC(=O)O)CCN(CC(=O)O)CC1)[C@@H](C)O)C(=O)NC1(C(=O)N[C@@H](Cc2ccncc2)C(N)=O)CCN(C(=N)N)CC1 [Compound 121] ({DOTA}-[dY][Phe(4-I)]NT[Phe(4-I)][azaGly]L[Api(1-amidino)][4Pal]-NH2),0.01 to 0.1
8,Cc1ccc(CNCC(=O)N2CCC(NC(=O)[C@H](CC(C)C)NC(=O)NNC(=O)[C@H](Cc3ccccc3)NC(=O)c3ccc(NC(=O)CN4CCN(CC(=O)O)CCN(CC(=O)O)CCN(CC(=O)O)CC4)cc3)(C(=O)N[C@@H](Cc3c[nH]c4ccccc34)C(N)=O)CC2)cc1F [Compound 50] ({DOTA-4Abz}-F[azaGly]L[Api](Gly(N-(3-F-4-Me-benzyl)))W-NH2),< 0.01
9,Cc1ccc(CNCC(=O)N2CCC(NC(=O)[C@H](CC(C)C)NC(=O)NNC(=O)[C@H](Cc3ccccc3)NC(=O)CCCCCNC(=O)[C@H](Cc3ccc(O)cc3)NC(=O)CNC(=O)c3ccc(CNC(=O)CN4CCN(CC(=O)O)CCN(CC(=O)O)CCN(CC(=O)O)CC4)cc3)(C(=O)N[C@@H](Cc3c[nH]c4ccccc34)C(N)=O)CC2)cc1F [Compound 176] ({DOTA-4Amb}-GY[Ahx]F[azaGly]L[Api](Gly(N-(3-F-4-Me-benzyl)))W-NH2),< 0.01
10,Cc1ccc(CNCC(=O)N2CCC(NC(=O)[C@H](CC(C)C)NC(=O)NNC(=O)[C@H](Cc3ccccc3)NC(=O)[C@@H](NC(=O)[C@H](CC(N)=O)NC(=O)[C@H](CCC(=O)O)NC(=O)CCCCCNC(=O)CN3CCN(CC(=O)O)CCN(CC(=O)O)CCN(CC(=O)O)CC3)[C@@H](C)O)(C(=O)N[C@@H](Cc3c[nH]c4ccccc34)C(N)=O)CC2)cc1F [Compound 238] ({DOTA-Ahx}-ENTF[azaGly]L[Api](Gly(N-(3-F-4-Me-benzyl)))W-NH2),< 0.01
11,Cc1ccc(CNCC(=O)N2CCC(NC(=O)[C@@H](/C=C/CNC(=O)[C@H](Cc3ccccc3)NC(=O)CCCCCNC(=O)CN3CCN(CC(=O)O)CCN(CC(=O)O)CCN(CC(=O)O)CC3)CC(C)C)(C(=O)N[C@@H](Cc3c[nH]c4ccccc34)C(N)=O)CC2)cc1F [Compound 51],< 0.01

# Other lines, results leading:
row,Ki [µM],Structure (SMILES)
1,< 0.01,CNCC(=O)N1CCC(NC(=O)[C@H](CC(C)C)NC(=O)NNC(=O)[C@H](Cc2ccccc2)NC(=O)[C@@H](NC(=O)[C@H](CC(N)=O)NC(=O)[C@H](CCCCNC(=O)CN2CCN(CC(=O)O)CCN(CC(=O)O)CCN(CC(=O)O)CC2)NC(=O)[C@@H](Cc2ccc(O)cc2)NC(=O)CCOCCOCCNC(=O)CNCc2ccc(C)c(F)c2)[C@@H](C)O)(C(=O)N[C@H](Cc2c[nH]c3ccccc23)C(N)=O)CC1 [Compound 359] (H-[Gly(N-3-F-4-Me-benzyl)][PEG2][dY]K(DOTA)NTF[azaGly]L[Api](Sar)[dW]-NH2)
2,< 0.01,COCCOCCOCCC(=O)N[C@@H](CCCCNC(=O)CN1CCN(CC(=O)O)CCN(CC(=O)O)CCN(CC(=O)O)CC1)C(=O)N[C@@H](CC(N)=O)C(=O)N[C@H](C(=O)N[C@@H](Cc1ccccc1)C(=O)NNC(=O)N[C@@H](CC(C)C)C(=O)NC1(C(=O)N[C@@H](Cc2ccncc2)C(N)=O)CCN(C(=O)CNCc2ccc(C)c(F)c2)CC1)[C@@H](C)O [Compound 255] ({Propanoyl(3-(MeO(CH2CH2O)2))}-K(DOTA)NTF[azaGly]L[Api](Gly(N-(3-F-4-Me-benzyl)))[4Pal]-NH2)
3,< 0.01,Cc1ccc(CNCC(=O)N2CCC(NC(=O)[C@H](CC(C)C)NC(=O)NNC(=O)[C@H](Cc3ccccc3)NC(=O)[C@@H](NC(=O)[C@H](CC(N)=O)NC(=O)[C@@H](Cc3c[nH]c4ccccc34)NC(=O)CCCCCNC(=O)CN3CCN(CC(=O)O)CCN(CC(=O)O)CCN(CC(=O)O)CC3)[C@@H](C)O)(C(=O)N[C@@H](Cc3ccncc3)C(N)=O)CC2)cc1F [Compound 290] ({DOTA-Ahx}-[dW]NTF[azaGly]L[Api](Gly(N-(3-F-4-Me-benzyl)))[4Pal]-NH2)
4,< 0.01,Cc1ccc(CNCC(=O)N2CCC(NC(=O)[C@H](CC(C)C)NC(=O)NNC(=O)[C@H](CC3CCCCC3)NC(=O)[C@@H](NC(=O)[C@H](CC(N)=O)NC(=O)[C@@H](Cc3c[nH]c4ccccc34)NC(=O)[C@H](N)Cc3ccc(O)cc3)[C@@H](C)O)(C(=O)N[C@@H](Cc3c[nH]c4ccccc34)C(N)=O)CC2)cc1F [Compound 404] (H-[dY][dW]NT[Cha][azaGly]L[Api](Gly(N-(3-F-4-Me-benzyl)))W-NH2)
5,< 0.01,CC(C)C[C@H](NC(=O)NNC(=O)[C@H](Cc1ccccc1)NC(=O)[C@@H](NC(=O)[C@H](CC(N)=O)NC(=O)[C@@H](Cc1ccc2ccccc2c1)NC(=O)[C@@H](Cc1ccc(O)cc1)NC(=O)CCCCCNC(=O)CN1CCN(CC(=O)O)CCN(CC(=O)O)CCN(CC(=O)O)CC1)[C@@H](C)O)C(=O)NC1(C(=O)N[C@@H](Cc2c[nH]c3ccccc23)C(N)=O)CCN(C(=N)N)CC1 [Compound 269] ({DOTA-Ahx}-[dY][d2Nal]NTF[azaGly]L[Api(1-amidino)]W-NH2)
6,< 0.01,CCCCCCCC(=O)N[C@H](Cc1ccc(O)cc1)C(=O)N[C@@H](CCCCNC(=O)CN1CCN(CC(=O)O)CCN(CC(=O)O)CCN(CC(=O)O)CC1)C(=O)N[C@@H](CC(N)=O)C(=O)N[C@H](C(=O)N[C@@H](Cc1ccccc1)C(=O)NNC(=O)N[C@@H](CC(C)C)C(=O)NC1(C(=O)N[C@@H](Cc2ccc(O)cc2)C(N)=O)CCN(C(=N)N)CC1)[C@@H](C)O [Compound 332] (Octanoyl-[dY]K(DOTA)NTF[azaGly]L[Api(1-amidino)]Y-NH2)
7,< 0.01,CNCC(=O)N1CCC(NC(=O)[C@H](CC(C)C)NC(=O)NNC(=O)[C@H](Cc2ccccc2)NC(=O)[C@@H](NC(=O)[C@H](CC(N)=O)NC(=O)[C@H](CCCCNC(=O)CN2CCN(CC(=O)O)CCN(CC(=O)O)CCN(CC(=O)O)CC2)NC(=O)[C@@H](Cc2ccc(O)cc2)NC(=O)CNCc2ccc(C)c(F)c2)[C@@H](C)O)(C(=O)N[C@H](Cc2c[nH]c3ccccc23)C(N)=O)CC1 [Compound 360] (H-[Gly(N-3-F-4-Me-benzyl)][dY]K(DOTA)NTF[azaGly]L[Api](Sar)[dW]-NH2)
8,0.01 to 0.1,CC(C)C[C@H](NC(=O)NNC(=O)[C@H](Cc1ccccc1)NC(=O)[C@@H](NC(=O)[C@H](CC(N)=O)NC(=O)[C@H](Cc1ccncc1)NC(=O)[C@@H](Cc1ccc(O)cc1)NC(=O)CN1CCN(CC(=O)O)CCN(CC(=O)O)CCN(CC(=O)O)CC1)[C@@H](C)O)C(=O)NC1(C(=O)N[C@@H](Cc2ccncc2)C(N)=O)CCN(C(=N)N)CC1 [Compound 273] ({DOTA}-[dY][4Pal]NTF[azaGly]L[Api(1-amidino)][4Pal]-NH2)
9,> 0.1,CC(C)C[C@H](NC(=O)NNC(=O)[C@H](Cc1ccccc1)NC(=O)[C@@H](NC(=O)[C@H](CC(N)=O)NC(=O)[C@@H](Cc1ccc2ccccc2c1)NC(=O)[C@@H](Cc1ccc(O)cc1)NC(=O)CCCCCNC(=O)CN1CCN(CC(=O)O)CCN(CC(=O)O)CCN(CC(=O)O)CC1)[C@@H](C)O)C(=O)NC1(C(=O)N[C@H](Cc2c[nH]c3ccccc23)C(N)=O)CCN(C(=O)CNCc2ccncc2)CC1 [Compound 370] ({DOTA-Ahx}-[dY][d2Nal]NTF[azaGly]L[Api](Gly(Nα-CH2(4-Pyr)))[dW]-NH2)
